The text below walks through data of ChEMBL document CHEMBL1201862, “PubChem BioAssay data set” (2004).

Activity calls are given as the source filed them.

What is called AC50 is the concentration giving half of the maximal activity seen. For orientation: CC50 means the concentration at which the toxic effect on the cells reaches its halfway point.

The target of the first assay is T1, Corticotropin-releasing factor receptor 2/Corticotropin-releasing factor-binding protein (Homo sapiens, UniProt P24387+Q13324).
T1 sequence (Q13324 whole entry): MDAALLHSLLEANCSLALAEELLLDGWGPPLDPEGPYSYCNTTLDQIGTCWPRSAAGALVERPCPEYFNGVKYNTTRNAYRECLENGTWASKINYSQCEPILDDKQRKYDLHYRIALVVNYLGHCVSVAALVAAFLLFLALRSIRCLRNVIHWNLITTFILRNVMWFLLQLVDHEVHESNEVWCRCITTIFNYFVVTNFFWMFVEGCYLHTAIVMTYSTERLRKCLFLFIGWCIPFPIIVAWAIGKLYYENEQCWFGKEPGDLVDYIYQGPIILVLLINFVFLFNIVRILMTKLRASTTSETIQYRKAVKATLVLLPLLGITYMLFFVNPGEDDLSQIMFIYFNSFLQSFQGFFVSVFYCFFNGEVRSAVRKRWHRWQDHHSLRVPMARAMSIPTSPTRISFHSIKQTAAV
T1 sequence (P24387 whole entry): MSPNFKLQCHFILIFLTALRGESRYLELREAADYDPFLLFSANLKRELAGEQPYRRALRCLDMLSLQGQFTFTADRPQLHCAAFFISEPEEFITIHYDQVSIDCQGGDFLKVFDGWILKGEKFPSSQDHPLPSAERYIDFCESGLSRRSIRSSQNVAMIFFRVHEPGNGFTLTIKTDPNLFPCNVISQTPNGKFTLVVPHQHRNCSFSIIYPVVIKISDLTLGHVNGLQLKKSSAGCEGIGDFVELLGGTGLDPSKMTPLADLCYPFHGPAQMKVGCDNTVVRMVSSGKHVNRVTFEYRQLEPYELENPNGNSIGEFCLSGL
As to the kind of experiment: activators of CRF receptor 2 with binding protein – uHTS hits, confirmation (AID 602473). It counts as functional. The conditions noted are these: read-out: EC50_Mean.
Turning to `Cc1ccc(CNC(=O)CN(c2ccc(C)cc2)S(=O)(=O)c2c(C)nn(C)c2C)cc1`, the EC50 is > 53 µM (inactive).
Same read-out and setting: under `Cc1ccc(S(=O)(=O)CCC(=O)Nc2cc(Cl)ccc2-n2cncn2)cc1` stands > 53 µM (inactive); under `CC(=O)N1N=C(C)CC1c1ccc(OCc2ccccc2)cc1` (centres undefined), > 53 µM (inactive).
As for `Cn1c(=O)oc2cc(S(=O)(=O)NCCC(=O)NCc3ccc(F)cc3)ccc21`, the EC50 was > 53 µM (inactive).
For `C=CCn1c(SCc2ccc(F)cc2)nc2c1c(=O)[nH]c(=O)n2C`, the EC50 was > 53 µM (inactive).
With `Cc1ccc(-c2nn(C)c(=O)c3ccccc23)cc1CO`, the EC50 is > 53 µM (inactive).
Same read-out and setting: under `O=C(CN1CCN(C(=O)c2ccco2)CC1)Nc1c2c(nc3c1CCC3)CCCC2` stands > 53 µM (inactive); under `Cc1nnc(SCC(=O)N(C)c2c(N)n(Cc3ccccc3)c(=O)[nH]c2=O)n1Cc1ccccc1`, > 53 µM (inactive); under `CC(=O)c1cccc(Nc2nc3ccccc3n3cnnc23)c1`, > 53 µM (inactive).
Still for that read-out and setting: under `CCC(C)C(=O)Nc1nnc(SCC(=O)NC(C)(C)C)s1` (centres undefined) stands > 53 µM (inactive).
Still for that read-out and setting: under `CC(=O)C1=C(C)N=C(S)NC1c1cc([N+](=O)[O-])ccc1O` (centres undefined) stands > 53 µM (inactive).

For the next assay, the target named is FAD-linked sulfhydryl oxidase ALR (Homo sapiens, UniProt P55789). The assay can be described thus: inhibitors of human ALR sulfhydryl oxidase, dose response, biochemical, H2O2 detection, luminescence, cherry-pick (AID 493248).
Chain of FAD-linked sulfhydryl oxidase ALR (P55789 whole entry): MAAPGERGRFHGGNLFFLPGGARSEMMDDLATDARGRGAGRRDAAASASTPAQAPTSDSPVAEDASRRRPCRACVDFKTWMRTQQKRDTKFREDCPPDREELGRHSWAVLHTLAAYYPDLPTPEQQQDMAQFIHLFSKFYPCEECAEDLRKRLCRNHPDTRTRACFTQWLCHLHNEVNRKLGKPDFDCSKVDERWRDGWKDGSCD
Conditions: not given
On to `COc1ccc(C2=CSC3=NNC4(CCCCC4)NN23)cc1`, for which the concentration at half-maximal activity (AC50) was 1.42 µM (active).
Consider `Cc1nc(SCc2ccc(C(=O)O)cc2)nc2c1CCCC2`, for which the AC50 was 3.29 µM (active).
For the molecule `COc1ccc(NC(=O)CC2C(=O)Nc3ccccc3N2CC(=O)N2CCCC2)cc1` (centres undefined), the AC50 was 6.65 µM (active).
Take `CC1(c2ccccc2)NC(=O)N(CC(=O)Nc2ccc(S(=O)(=O)Nc3ncccn3)cc2)C1=O` (centres undefined): the half-maximal activity concentration (AC50) is 0.675 µM (active).
The same measure, in the same setting: to `COc1ccc(C2NC(=O)CS2)cc1OC` (centres undefined) belongs 0.093 µM (active).
On the same count and under the same terms, under `COc1cc(CNc2ccc(C)c(C)c2)cc(OC)c1OC` stands 9.13 µM (active).
Still for that read-out and setting: to `O=C1CCC(C(=O)Nc2ccccc2N2CCCC2)=NN1` belongs 3.7 µM (active); to `COc1cccc(/C=N/NC(=O)NC2CCCCC2)c1O`, 3.71 µM (active); to `C/C(=N\NC(=O)c1ccc(N/N=C(\C)c2ccncc2)cc1)c1ccncc1`, 0.107 µM (active).

The next assay has as its target T1, Corticotropin-releasing factor receptor 2/Corticotropin-releasing factor-binding protein. The assay can be described thus: Dose Response confirmation of uHTS hits for small molecule antagonists of the CRF-binding protein and CRF-R2 receptor complex. It counts as functional. Conditions: read-out: IC50_Mean.
`Cc1ccc(CNC(=O)CN(c2ccc(C)cc2)S(=O)(=O)c2c(C)nn(C)c2C)cc1`: the IC50 was > 47.1 µM (inactive).
The same measure, in the same setting: under `Cc1ccc(S(=O)(=O)CCC(=O)Nc2cc(Cl)ccc2-n2cncn2)cc1` stands > 47.1 µM (inactive).
As to `CC(=O)N1N=C(C)CC1c1ccc(OCc2ccccc2)cc1` (centres undefined), the IC50 is > 47.1 µM (inactive).
Regarding `Cn1c(=O)oc2cc(S(=O)(=O)NCCC(=O)NCc3ccc(F)cc3)ccc21`, the IC50 was > 47.1 µM (inactive).
On the same count and under the same terms, under `C=CCn1c(SCc2ccc(F)cc2)nc2c1c(=O)[nH]c(=O)n2C` stands > 47.1 µM (inactive); under `Cc1ccc(-c2nn(C)c(=O)c3ccccc23)cc1CO`, > 47.1 µM (inactive); under `O=C(CN1CCN(C(=O)c2ccco2)CC1)Nc1c2c(nc3c1CCC3)CCCC2`, > 47.1 µM (inactive).
Still for that read-out and setting: under `Cc1nnc(SCC(=O)N(C)c2c(N)n(Cc3ccccc3)c(=O)[nH]c2=O)n1Cc1ccccc1` stands > 47.1 µM (inactive); under `CC(=O)c1cccc(Nc2nc3ccccc3n3cnnc23)c1`, < 0.368 µM (active); under `CCC(C)C(=O)Nc1nnc(SCC(=O)NC(C)(C)C)s1` (centres undefined), > 47.1 µM (inactive).
`CC(=O)C1=C(C)N=C(S)NC1c1cc([N+](=O)[O-])ccc1O` (centres undefined): the IC50 was > 47.1 µM (inactive).

Test system in a further assay: not listed separately
As to the kind of experiment: NIH-3T3 fibroblast cytotoxicity, dose response, cytotoxicity control, cell-based, fluorescence, Alamar Blue, secondary assay (AID 2327).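 Note: NIH-3T3 mouse fibroblasts cultured with fluconazole at 8 µg/mL.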 It counts as functional.
Conditions: not given
Background: The colour change of resazurin is a common sign of viable cells or microbes.
Regarding `COc1ccc(C2=CSC3=NNC4(CCCCC4)NN23)cc1`, the EC50 was 38.8 µM (active).

Test system in another assay: not listed separately
The assay can be described thus: HEp-2 cell cytotoxicity, dose response, cytotoxicity control for RSV inhibitor project, HTS (AID 2410). It counts as functional. Conditions: human respiratory syncytial virus.
With `CC(=O)c1cccc(Nc2nc3ccccc3n3cnnc23)c1`, the CC50 was 43.9 µM (active).

The next assay relates to H9c2. The assay can be described thus: cells. The conditions noted are these: Rattus norvegicus, H9c2, Myocardium. It counts as functional, cell-based.
`CC(=O)c1cccc(Nc2nc3ccccc3n3cnnc23)c1`: the IC50 was > 79 µM (inactive).
